# From paper PMC12606464, “Investigating NFE2L1 activators for targeted protein aggregate clearance: a follow-up study” (RSC Medicinal Chemistry, 2025)
# Tests used:
# [1] = tested on: NFE2L1/TCF11/NRF1, SQSTM1/p62, LC3, NQO1 and HSPA1A/HSP70-1 protein levels; test: Immunoblot analysis in HEK293 cells; format: cell-based, human; conditions: for LC3-I protein level, Treatment geometric mean / LC3-II protein level, Treatment geometric mean / HSPA1A protein level, Treatment geometric mean / LC3-total protein level, Treatment geometric mean / NFE2L1 protein level, Treatment geometric mean / NQO1 protein level, Treatment geometric mean / SQSTM1 protein level, Treatment geometric mean: immunoblot quantification; for LC3-I protein level, Treatment geometric mean / LC3-II protein level, Treatment geometric mean / HSPA1A protein level, Treatment geometric mean / LC3-total protein level, Treatment geometric mean / NFE2L1 protein level, Treatment geometric mean / NQO1 protein level, Treatment geometric mean / SQSTM1 protein level, Treatment geometric mean / HSPA1A protein level, geometric mean of ratios / LC3-II protein level, geometric mean of ratios / LC3-total protein level, geometric mean of ratios / NFE2L1 protein level, geometric mean of ratios / NQO1 protein level, geometric mean of ratios / SQSTM1 protein level, geometric mean of ratios: Fig. 2B; for LC3-I protein level, Treatment geometric mean: control geometric mean = 0.24; for LC3-II protein level, Treatment geometric mean: control geometric mean = 0.73; for HSPA1A protein level, Treatment geometric mean / LC3-total protein level, Treatment geometric mean / NFE2L1 protein level, Treatment geometric mean / NQO1 protein level, Treatment geometric mean / SQSTM1 protein level, Treatment geometric mean: control geometric mean = 1; for HSPA1A protein level, geometric mean of ratios / LC3-II protein level, geometric mean of ratios / LC3-total protein level, geometric mean of ratios / NFE2L1 protein level, geometric mean of ratios / NQO1 protein level, geometric mean of ratios / SQSTM1 protein level, geometric mean of ratios: ratio paired t test, treatment vs control
# Procedure: Fig. 2 (A) qPCRs of HEK293 cells treated with RUN compounds (7.5 μM) for 16 hours. The extracted RNA was reverse transcribed into cDNA and utilized for RT-qPCR (primers are listed in the SI, Table S1); the mRNA levels of RPLP0 were used for normalization. The experiment was performed in three biological replicates (n = 3). (B) Immunoblot analysis of proteins NFE2L1/TCF11/NRF1, SQSTM1/p62, LC3, NQO1 and HSPA1A/HSP70-1 in HEK293 cells after 16 h treatment with 7.5 μM RUN compounds. The protein levels were quantified by measuring the integrated fluorescence of the corresponding protein bands and normalized to the β-actin load. The full-length (F) and cleaved (C) forms of NFE2L1 were analyzed together. The experiment was performed in four biological replicates (n = 4) except for NFE2L1 (n = 3). (A and B) Results of RUN compounds were compared to the DMSO control using ratio paired t-tests corrected for multiple comparisons with Holm–Šídák's method (α = 0.05). *p < 0.05, **p < 0.01. Detailed results of the analysis are shown in SI Tables S5 and S6.
# To confirm NFE2L1-controlled gene expression at the protein level, western blot analysis was performed. HEK293 cells were treated with selected RUN compounds for 16 hours, after which the protein levels were analyzed. […] Similar observations were made with SQSTM1 and LC3. As mentioned earlier, SQSTM1 directly binds to the LC3 region to facilitate the delivery of proteins for autophagic clearance.[62,64,65] Within cells, LC3 undergoes cleavage to form its cytosolic version, LC3-I, which is further converted into its membrane-bound form, LC3-II, which is anchored in autophagosomal membranes.[60,66] Consequently, both SQSTM1 and LC3 are widely regarded as markers of autophagy.[65] […] The increase in the LC3-II form indicates active autophagic processes. […]
# HEK293 cells were treated with 7.5 µM RUN compounds for 16 h, then harvested and resuspended in lysis buffer [50 mM HEPES (pH 7.5), 5 mM EDTA, 150 mM NaCl, 2 mM ATP, and 1% Triton]. Cell lysates were subsequently centrifuged at 15,000 rpm and 4°C for 15 minutes, and then a protein concentration was determined using the Pierce BCA Protein Assay Kit (Thermo Fisher Scientific). Cell lysates were boiled for 5 min at 95 °C in a 6xSDS sample buffer [350 mM Tris-HCl (pH 6.8), 350 mM SDS, 30% (v/v) glycerol, 4% β-mercaptoethanol, 180 µM bromophenol blue]. Prepared samples (15 µg of proteins) were separated by SDS-PAGE (10, 12, or 16% Bis-Tris gels; 50 V for 5 min, then 200 V) and transferred onto a 0.45 µm nitrocellulose membrane (Bio-Rad). For LC3 level analysis, the 0.2 µm nitrocellulose membrane (Bio-Rad) was used. Membranes were blocked in Intercept® (TBS) Blocking Buffer (LI-COR Biosciences) for 1 h at room temperature and then incubated with primary antibodies in Intercept® (TBS) Blocking Buffer with 0.1% Tween-20 overnight at 4°C. Used primary antibodies: anti-NFE2L1/TCF11/SKN1/NRF1 monoclonal antibody (Cell Signalling; #8052; anti-NQO1 polyclonal antibody (Sigma-Aldrich; # HPA007308; 1:5.000), anti-LC3 antibody […]
# (Sigma-Aldrich; #L8918), anti-p62/SQSTM antibody (Sigma-Aldrich; #P0067), anti-β-actin monoclonal antibody (Sigma-Aldrich; #A5441; 1:10.000). The resulting membranes were washed and incubated with near-infrared fluorophore-conjugated goat anti-mouse IRDye […]
# COR Biosciences; #926-32211; 1:15.000) for 1 h at room temperature. Membranes were imaged using Odyssey® M NIR Imaging System (LI-COR Biosciences) and quantified using Image Studio software v. 6.0 (LI-COR Biosciences). The protein levels were quantified by measuring the integrated fluorescence of the corresponding protein bands and normalized to the β-actin loading control. Changes in protein levels after treatment with RUN compounds were analyzed using paired t-tests with correction for multiple comparisons using the Holm-Šídák method (α = 0.05) in GraphPad Prism (v 10.6.1).
# 2.7 Proteasome activity assay […]
# HEK293 cells = test: alamarBlue cytotoxicity assessment in HEK293 cells; format: cell-based, human; conditions: for Mean 1 (viability; 0 µM = 100): Fig. S2, n = 3; for Tox [% of ctrl.]: HEK293, alamarBlue, 16 h, concentration not given
# Method in brief: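 HEK293 cells exposed 16 h to compound at 1.25, 2.5, 5, 7.5 and 10 µM, with DMSO as vehicle control. Viability read by alamarBlue; means ± SD of three independent experiments.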
# [2] = HEK293, 7.5 μM, 16 h, versus DMSO
Compound,"Total LC3 protein level [1, 2]","LC3-I protein level, Treatment geometric mean [1]","LC3-II protein level, Treatment geometric mean [1]","HSPA1A protein level, Treatment geometric mean [1]","LC3-total protein level, Treatment geometric mean [1]","NFE2L1 protein level, Treatment geometric mean [1]","NQO1 protein level, Treatment geometric mean [1]","SQSTM1 protein level, Treatment geometric mean [1]","HSPA1A protein level, geometric mean of ratios [1]","LC3-II protein level, geometric mean of ratios [1]","LC3-total protein level, geometric mean of ratios [1]","NFE2L1 protein level, geometric mean of ratios [1]","NQO1 protein level, geometric mean of ratios [1]",Mean 1 (viability; 0 µM = 100) (HEK293 cells; 5 uM),Mean 1 (viability; 0 µM = 100) (HEK293 cells; 10 uM),"Mean 1 (viability; 0 µM = 100) (HEK293 cells; 1,125 uM)","Mean 1 (viability; 0 µM = 100) (HEK293 cells; 2,5 uM)","Mean 1 (viability; 0 µM = 100) (HEK293 cells; 7,5 uM)",Tox [% of ctrl.] (HEK293 cells),"SQSTM1 protein level, geometric mean of ratios [1]",further results
COc1ccc(/C=C2\CC(NC(=O)C3CCCC3)C/C(=C\c3ccc(OC)c(OC)c3)C2=O)cc1OC (centres unmarked) [RUN-89],significantly elevate,0.26,1.88,4.38,2.16,13.41,3.31,4.74,4.38,2.56,2.16,13.41,3.31,76.01,68.72,100.7,91.49,71.31,81% of ctrl.,,
COc1ccc(/C=C2\CC(N)C/C(=C\c3ccc(OC)c(OC)c3)C2=O)cc1OC (centres unmarked) [RUN-81],,0.29,1.57,3.49,1.88,6.78,3.12,3.55,3.49,2.14,1.88,6.78,3.12,80.55,79.08,98.04,92.22,79.02,84% of ctrl.,3.55,
COc1ccc(/C=C2\CC(NC(=O)c3ccccn3)C/C(=C\c3ccc(OC)c(OC)c3)C2=O)cc1OC (centres unmarked) [RUN-94],significantly elevate,0.38,1.72,3.12,2.14,14.37,4.16,5.55,3.12,2.35,2.14,14.37,4.16,86.01,74.87,105.6,101.6,75.79,78% of ctrl.,5.55,"NQO1 protein level [1, 2]: notably boosting"
